Two molecules from PubChem BioAssay AID1259407 (Chemical Carcinogenesis Research Information System (CCRIS), 2018) can be followed below.

The series has as its system CCRIS mutagenicity, Ames/micronucleus/aberration tests. As to the kind of experiment: CCRIS mutagenicity studies.
Setting [1] is: Test System: AMES SALMONELLA TYPHIMURIUM, Strain/Indicator: TA98, Metabolic Activation: NONE, Method: STANDARD PLATE.
[2] abbreviates: Test System: AMES SALMONELLA TYPHIMURIUM, Strain/Indicator: TA98, Metabolic Activation: RAT, LIVER, S-9, AROCLOR 1254, Method: STANDARD PLATE.
Setting [3] is: Test System: AMES SALMONELLA TYPHIMURIUM, Strain/Indicator: TA100, Metabolic Activation: NONE, Method: STANDARD PLATE.
The mark [4] stands for this setting: Test System: AMES SALMONELLA TYPHIMURIUM, Strain/Indicator: TA100, Metabolic Activation: RAT, LIVER, S-9, AROCLOR 1254, Method: STANDARD PLATE.

Calls of active or inactive are those of the source. The rule behind the calls is not given here.

As to `C=CC(=O)OCCCC`, the mutagenic call reads like this: (Test System: AMES SALMONELLA TYPHIMURIUM, Strain/Indicator: TA98, Metabolic Activation: HAMSTER, LIVER, S-9, AROCLOR 1254 (10%), Method: PREINCUBATION) “inactive; negative”; (Test System: AMES SALMONELLA TYPHIMURIUM, Strain/Indicator: TA98, Metabolic Activation: NONE, Method: PREINCUBATION) “inactive; negative”; under setting [1], “inactive; negative”; (Test System: AMES SALMONELLA TYPHIMURIUM, Strain/Indicator: TA98, Metabolic Activation: RAT, LIVER, S-9, AROCLOR 1254 (10%), Method: PREINCUBATION) “inactive; negative”; under setting [2], “inactive; negative”; (Test System: AMES SALMONELLA TYPHIMURIUM, Strain/Indicator: TA98, Metabolic Activation: RAT, LIVER, S-9, SODIUM PHENOBARBITAL, Method: STANDARD PLATE) “inactive; negative”. The mutagenic call was “inactive; negative” (Test System: AMES SALMONELLA TYPHIMURIUM, Strain/Indicator: TA100, Metabolic Activation: HAMSTER, LIVER, S-9, AROCLOR 1254 (10%), Method: PREINCUBATION); “inactive; negative” (Test System: AMES SALMONELLA TYPHIMURIUM, Strain/Indicator: TA100, Metabolic Activation: NONE, Method: PREINCUBATION); “inactive; negative” under setting [3]; “inactive; negative” (Test System: AMES SALMONELLA TYPHIMURIUM, Strain/Indicator: TA100, Metabolic Activation: RAT, LIVER, S-9, AROCLOR 1254 (10%), Method: PREINCUBATION); “inactive; negative” (Test System: AMES SALMONELLA TYPHIMURIUM, Strain/Indicator: TA100, Metabolic Activation: RAT, LIVER, S-9, AROCLOR 1254, Method: PREINCUBATION); “inactive; negative” under setting [4]. Further, the mutagenic call by setting is: (Test System: AMES SALMONELLA TYPHIMURIUM, Strain/Indicator: TA100, Metabolic Activation: RAT, LIVER, S-9, SODIUM PHENOBARBITAL, Method: STANDARD PLATE) “inactive; negative”; (Test System: AMES SALMONELLA TYPHIMURIUM, Strain/Indicator: TA1535, Metabolic Activation: HAMSTER, LIVER, S-9, AROCLOR 1254 (10%), Method: PREINCUBATION) “inactive; negative”; (Test System: AMES SALMONELLA TYPHIMURIUM, Strain/Indicator: TA1535, Metabolic Activation: NONE, Method: PREINCUBATION) “inactive; negative”; (Test System: AMES SALMONELLA TYPHIMURIUM, Strain/Indicator: TA1535, Metabolic Activation: NONE, Method: STANDARD PLATE) “inactive; negative”; (Test System: AMES SALMONELLA TYPHIMURIUM, Strain/Indicator: TA1535, Metabolic Activation: RAT, LIVER, S-9, AROCLOR 1254 (10%), Method: PREINCUBATION) “inactive; negative”; (Test System: AMES SALMONELLA TYPHIMURIUM, Strain/Indicator: TA1535, Metabolic Activation: RAT, LIVER, S-9, AROCLOR 1254, Method: STANDARD PLATE) “inactive; negative”. The mutagenic call reads like this: (Test System: AMES SALMONELLA TYPHIMURIUM, Strain/Indicator: TA1535, Metabolic Activation: RAT, LIVER, S-9, SODIUM PHENOBARBITAL, Method: STANDARD PLATE) “inactive; negative”; (Test System: AMES SALMONELLA TYPHIMURIUM, Strain/Indicator: TA1537, Metabolic Activation: HAMSTER, LIVER, S-9, AROCLOR 1254 (10%), Method: PREINCUBATION) “inactive; negative”; (Test System: AMES SALMONELLA TYPHIMURIUM, Strain/Indicator: TA1537, Metabolic Activation: NONE, Method: PREINCUBATION) “inactive; negative”; (Test System: AMES SALMONELLA TYPHIMURIUM, Strain/Indicator: TA1537, Metabolic Activation: NONE, Method: STANDARD PLATE) “inactive; negative”; (Test System: AMES SALMONELLA TYPHIMURIUM, Strain/Indicator: TA1537, Metabolic Activation: RAT, LIVER, S-9, AROCLOR 1254 (10%), Method: PREINCUBATION) “inactive; negative”; (Test System: AMES SALMONELLA TYPHIMURIUM, Strain/Indicator: TA1537, Metabolic Activation: RAT, LIVER, S-9, AROCLOR 1254, Method: STANDARD PLATE) “inactive; negative”. Further, the mutagenic call was “inactive; negative” (Test System: AMES SALMONELLA TYPHIMURIUM, Strain/Indicator: TA1537, Metabolic Activation: RAT, LIVER, S-9, SODIUM PHENOBARBITAL, Method: STANDARD PLATE); “inactive; negative” (Test System: AMES SALMONELLA TYPHIMURIUM, Strain/Indicator: TA1538, Metabolic Activation: NONE, Method: STANDARD PLATE); “inactive; negative” (Test System: AMES SALMONELLA TYPHIMURIUM, Strain/Indicator: TA1538, Metabolic Activation: RAT, LIVER, S-9, AROCLOR 1254, Method: STANDARD PLATE); “inactive; negative” (Test System: AMES SALMONELLA TYPHIMURIUM, Strain/Indicator: TA1538, Metabolic Activation: RAT, LIVER, S-9, SODIUM PHENOBARBITAL, Method: STANDARD PLATE); “active; positive. reevaluation of results: positive” (Test System: MOUSE LYMPHOMA, Strain/Indicator: L5178Y (TK+/TK-), Metabolic Activation: NONE, Method: SUSPENSION/PLATE); “inactive; negative. reevaluation of results: negative” (Test System: MOUSE LYMPHOMA, Strain/Indicator: L5178Y (TK+/TK-), Metabolic Activation: RAT, LIVER, S-9, AROCLOR 1254, Method: SUSPENSION/PLATE). For the same molecule, for the setting “Test System: UDS RODENT CELLS, Strain/Indicator: SHE CELL-MEDIATED, Metabolic Activation: NONE, Method: LIQUID SCINTILLATION COUNTING (THYMIDINE INCORPORATION)”, the mutagenic call was “inactive; negative”.

For the molecule `Cl/C=C(/Cl)c1c(Cl)c(Cl)c(Cl)c(Cl)c1Cl`, the mutagenic call under setting [1] is “inactive; negative”, the mutagenic call under setting [2] was “inactive; negative”, the mutagenic call under setting [3] is “inactive; negative” and the mutagenic call under setting [4] was “inactive; negative”.
